According to patent publication US4684664A, “Derivatives of β-(4-isocyano-1,2,3,4-diepoxycyclopentyl) acrylic acid” (Kureha Kagaku Kogyo Kabushiki Kaisha, priority 1984, dated 1987):
Converted amounts (≈) assume the structure as drawn.

Key:
Type in all cases: cell-based
[1] = system: Staphylococcus aureus FDA 209PJc-1; assay: Antibacterial activity, agar-dilution MIC, organism No. 1; conditions: Staphylococcus aureus, FDA209PJC1; Organism No. 1, bouillon-agar; read-out: Minimum Inhibitory Concentration
Description: (§1) Agar-dilution method was used for determination of the antibacterial activity and antifungal activity while using bouillon-agar culture medium, and the minimum inhibitory concentration of the specimen was expressed by μg/ml of the culture medium.

[2] = system: Staphylococcus aureus Terajima; assay: Antibacterial activity, agar-dilution MIC, organism No. 2; conditions: Staphylococcus aureus; Organism No. 2, bouillon-agar; read-out: Minimum Inhibitory Concentration
Description: as §1

[3] = system: Staphylococcus aureus MS 353; assay: Antibacterial activity, agar-dilution MIC, organism No. 3; conditions: Staphylococcus aureus, MS353; Organism No. 3, bouillon-agar; read-out: Minimum Inhibitory Concentration
Description: as §1

[4] = system: Streptococcus pyogenes Cook; assay: Antibacterial activity, agar-dilution MIC, organism No. 4; conditions: Streptococcus pyogenes; Organism No. 4, bouillon-agar; read-out: Minimum Inhibitory Concentration
Description: as §1

[5] = system: Escherichia coli NIHJ-JC-2; assay: Antibacterial activity, agar-dilution MIC, organism No. 5; conditions: Escherichia coli, NIHJJC2; Organism No. 5, bouillon-agar; read-out: Minimum Inhibitory Concentration
Description: as §1

[6] = system: Escherichia coli K12 C600 IAM 1264; assay: Antibacterial activity, agar-dilution MIC, organism No. 6; conditions: Escherichia coli, IAM1264; Organism No. 6, bouillon-agar; read-out: Minimum Inhibitory Concentration
Description: as §1

[7] = system: Klebsiella pneumoniae PCI-602; assay: Antibacterial activity, agar-dilution MIC, organism No. 7; conditions: Klebsiella pneumoniae, PCI602; Organism No. 7, bouillon-agar; read-out: Minimum Inhibitory Concentration
Description: as §1

[8] = system: Salmonella typhimurium IID 971; assay: Antibacterial activity, agar-dilution MIC, organism No. 8; conditions: Salmonella enterica; Organism No. 8, bouillon-agar; read-out: Minimum Inhibitory Concentration
Description: as §1

[9] = system: Salmonella typhi 901; assay: Antibacterial activity, agar-dilution MIC, organism No. 9; conditions: Salmonella enterica, TYPHI, read-out: Minimum Inhibitory Concentration
Description: as §1

[10] = system: Salmonella paratyphi-A 1015; assay: Antibacterial activity, agar-dilution MIC, organism No. 10; conditions: Salmonella enterica, PARATYPHI, read-out: Minimum Inhibitory Concentration
Description: as §1

[11] = system: Salmonella shottmuelleri 8006; assay: Antibacterial activity, agar-dilution MIC, organism No. 11; conditions: Salmonella, 8006; Organism No. 11, bouillon-agar; read-out: Minimum Inhibitory Concentration
Description: as §1

[12] = system: Salmonella enteritidis G 14; assay: Antibacterial activity, agar-dilution MIC, organism No. 12; conditions: Salmonella enterica, ENTERITIDIS; Organism No. 12, bouillon-agar; read-out: Minimum Inhibitory Concentration
Description: as §1

[13] = system: Bacillus subtilis ATCC 6633; assay: Antibacterial activity, agar-dilution MIC, organism No. 14; conditions: Bacillus subtilis, ATCC6633; Organism No. 14, bouillon-agar; read-out: Minimum Inhibitory Concentration
Description: as §1

[14] = system: Pseudomonas aeruginosa IFO 3445; assay: Antibacterial activity, agar-dilution MIC, organism No. 15; conditions: Pseudomonas aeruginosa, IFO3445; Organism No. 15, bouillon-agar; read-out: Minimum Inhibitory Concentration
Description: as §1

[15] = system: Pseudomonas aeruginosa NCTC 10490; assay: Antibacterial activity, agar-dilution MIC, organism No. 16; conditions: Pseudomonas aeruginosa, NCTC10490; Organism No. 16, bouillon-agar; read-out: Minimum Inhibitory Concentration
Description: as §1

[16] = system: Pseudomonas aeruginosa PAO 1; assay: Antibacterial activity, agar-dilution MIC, organism No. 17; conditions: Pseudomonas aeruginosa, PAO1; Organism No. 17, bouillon-agar; read-out: Minimum Inhibitory Concentration
Description: as §1

[17] = system: Proteus morganii IFO 3848; assay: Antibacterial activity, agar-dilution MIC, organism No. 18; conditions: Morganella morganii, IFO3848; Organism No. 18, bouillon-agar; read-out: Minimum Inhibitory Concentration
Description: as §1

[18] = system: Proteus mirabilis IFO 3849; assay: Antibacterial activity, agar-dilution MIC, organism No. 19; conditions: Proteus mirabilis, IFO3849; Organism No. 19, bouillon-agar; read-out: Minimum Inhibitory Concentration
Description: as §1

[19] = system: Proteus vulgaris OX-19; assay: Antibacterial activity, agar-dilution MIC, organism No. 20; conditions: Proteus vulgaris, OX19; Organism No. 20, bouillon-agar; read-out: Minimum Inhibitory Concentration
Description: as §1

[20] = system: Proteus vulgaris HX-19; assay: Antibacterial activity, agar-dilution MIC, organism No. 21; conditions: Proteus vulgaris, HX19; Organism No. 21, bouillon-agar; read-out: Minimum Inhibitory Concentration
Description: as §1

[21] = system: Proteus rettgeri IFO 3850; assay: Antibacterial activity, agar-dilution MIC, organism No. 22; conditions: Providencia rettgeri, IFO3850; Organism No. 22, bouillon-agar; read-out: Minimum Inhibitory Concentration
Description: as §1

[22] = system: Enterobacter aerogenes ATCC 13048; assay: Antibacterial activity, agar-dilution MIC, organism No. 23; conditions: Klebsiella aerogenes, ATCC13048; Organism No. 23, bouillon-agar; read-out: Minimum Inhibitory Concentration
Description: as §1

[23] = system: Enterobacter cloacae 963; assay: Antibacterial activity, agar-dilution MIC, organism No. 24; conditions: Enterobacter cloacae, 963; Organism No. 24, bouillon-agar; read-out: Minimum Inhibitory Concentration
Description: as §1

[24] = system: Micrococcus luteus ATCC 9341; assay: Antibacterial activity, agar-dilution MIC, organism No. 25; conditions: Micrococcus luteus, ATCC9341; Organism No. 25, bouillon-agar; read-out: Minimum Inhibitory Concentration
Description: as §1

[25] = system: Streptococcus pyogenes IFO 3340; assay: Antibacterial activity, agar-dilution MIC, organism No. 26; conditions: Streptococcus pyogenes, IFO3340; Organism No. 26, bouillon-agar; read-out: Minimum Inhibitory Concentration
Description: as §1

[26] = system: Streptococcus faecium IFO 3826; assay: Antibacterial activity, agar-dilution MIC, organism No. 27; conditions: Enterococcus faecium, IFO3826; Organism No. 27, bouillon-agar; read-out: Minimum Inhibitory Concentration
Description: as §1

[27] = system: Mycoplasma pneumoniae IID817; assay: Antimycoplasmal activity, MIC by phenol red colour change, organism No. 28; conditions: Mycoplasma, IID817; Organism No. 28, PPLO broth + 1% glucose, 37° C.; read-out: Minimum Inhibitory Concentration (MIC)
Method: Mycoplasma pneumoniae IID817 was used as the test microorganism in a culture medium prepared by adding 1% of glucose to "PPLO broth (manufactured by Difco Co.) liquid culture medium" at 37° C. with phenol red as an indicator, thereby culturing the test microorganism.

[28] = system: Candida albicans IAM 4905; assay: Antifungal activity, agar-dilution MIC, organism No. 29; conditions: Candida albicans, IAM4905; Organism No. 29, bouillon-agar; read-out: Minimum Inhibitory Concentration
Description: as §1

[29] = system: Aspergillus niger IFO 6342; assay: Antifungal activity, agar-dilution MIC, organism No. 30; conditions: Aspergillus niger, IFO6342; Organism No. 30, bouillon-agar; read-out: Minimum Inhibitory Concentration
Description: as §1

| Compound | MIC [1] [µg/mL] | MIC [2] [µg/mL] | MIC [3] [µg/mL] | MIC [4] [µg/mL] | MIC [5] [µg/mL] | MIC [6] [µg/mL] | MIC [7] [µg/mL] | MIC [8] [µg/mL] | MIC [9] [µg/mL] | MIC [10] [µg/mL] | MIC [11] [µg/mL] | MIC [12] [µg/mL] | MIC [13] [µg/mL] | MIC [14] [µg/mL] | MIC [15] [µg/mL] | MIC [16] [µg/mL] | MIC [17] [µg/mL] | MIC [18] [µg/mL] | MIC [19] [µg/mL] | MIC [20] [µg/mL] | further results |
| --- | --- | --- | --- | --- | --- | --- | --- | --- | --- | --- | --- | --- | --- | --- | --- | --- | --- | --- | --- | --- | --- |
| [C-]#[N+]C12CC3(/C=C/C(=O)Nc4cccc(Cl)c4)OC3C1O2 (stereo not drawn) [compound 41] | 0.2 (≈ 0.661 µM) | 0.39 (≈ 1.29 µM) | 0.1 (≈ 0.33 µM) | > 200 | > 200 | 200 (≈ 661 µM) | < 0.05 | 3.13 (≈ 10.3 µM) | 3.13 (≈ 10.3 µM) | 0.78 (≈ 2.58 µM) | 0.2 (≈ 0.661 µM) | 3.13 (≈ 10.3 µM) | 1.56 (≈ 5.15 µM) | > 200 | > 200 | > 200 | 0.1 (≈ 0.33 µM) | > 200 | 0.78 (≈ 2.58 µM) | < 0.05 | MIC [21]: 3.13 µg/mL (≈ 10.3 µM); MIC [22]: > 200 µg/mL; MIC [23]: 50 µg/mL (≈ 165 µM); MIC [24]: < 0.05 µg/mL; MIC [25]: 0.39 µg/mL (≈ 1.29 µM); MIC [26]: 3.13 µg/mL (≈ 10.3 µM); MIC [27]: < 0.2 µg/mL; MIC [28]: 0.8 µg/mL (≈ 2.64 µM); MIC [29]: 1.56 µg/mL (≈ 5.15 µM) |
| [C-]#[N+]C12CC3(/C=C/C(=O)Nc4ccc(Br)cc4)OC3C1O2 (stereo not drawn) [compound 44] | 0.39 (≈ 1.12 µM) | 3.13 (≈ 9.02 µM) | 0.39 (≈ 1.12 µM) | > 200 | > 200 | > 200 | 0.2 (≈ 0.576 µM) | 50 (≈ 144 µM) | 12.5 (≈ 36 µM) | 3.13 (≈ 9.02 µM) | 3.13 (≈ 9.02 µM) | 50 (≈ 144 µM) | 25 (≈ 72 µM) | > 200 | > 200 | > 200 | 3.13 (≈ 9.02 µM) | > 200 | 6.25 (≈ 18 µM) | 0.1 (≈ 0.288 µM) | MIC [21]: 100 µg/mL (≈ 288 µM); MIC [22]: > 200 µg/mL; MIC [23]: > 200 µg/mL; MIC [24]: < 0.05 µg/mL; MIC [25]: 12.5 µg/mL (≈ 36 µM); MIC [26]: 200 µg/mL (≈ 576 µM); MIC [27]: < 0.2 µg/mL; MIC [28]: 0.39 µg/mL (≈ 1.12 µM); MIC [29]: 1.56 µg/mL (≈ 4.49 µM) |
| [C-]#[N+]C12CC3(/C=C/C(=O)N[C@@H](CCC(=O)OC)C(=O)OC)OC3C1O2 (stereo partly drawn) [Compound No. 26] | 25 (≈ 71.4 µM) | 100 (≈ 285 µM) | 25 (≈ 71.4 µM) | 50 (≈ 143 µM) | 100 (≈ 285 µM) | 100 (≈ 285 µM) | 50 (≈ 143 µM) | 100 (≈ 285 µM) | 50 (≈ 143 µM) | 50 (≈ 143 µM) | 50 (≈ 143 µM) | 50 (≈ 143 µM) | 100 (≈ 285 µM) | > 200 | > 200 | > 200 | 100 (≈ 285 µM) | > 200 | 25 (≈ 71.4 µM) | 12.5 (≈ 35.7 µM) | MIC [21]: > 200 µg/mL; MIC [22]: > 200 µg/mL; MIC [23]: > 200 µg/mL; MIC [24]: 12.5 µg/mL (≈ 35.7 µM); MIC [25]: 50 µg/mL (≈ 143 µM); MIC [26]: > 200 µg/mL; MIC [27]: 1.56 µg/mL; MIC [28]: 100 µg/mL (≈ 285 µM); MIC [29]: 100 µg/mL (≈ 285 µM) |
